Measured values reported in US5256690A, “Method for treating and controlling the symptoms of neurodegenerative disease and neuropsychopharmacological disorders” (Carter-Wallace, Inc., priority 1992, dated 1993).

Tests used:
[1] = biological target: T1, strychnine-insensitive glycine receptors (Rattus norvegicus, UniProt P35439); conditions: value used in the K calculation; read-out: dissociation constant KD of [3H]5,7DCKA; cited from earlier work
T1 construct: Brains are immediately removed and forebrains dissected; from tissue; host or cells: rat forebrain membranes (P2/P3 pellet, washed, frozen), male Sprague-Dawley

[2] = test system: MES; conditions: rats; cited from earlier work
[3] = test system: hippocampal slices; experiment: Hippocampal slice hypoxia model (evoked potential recovery); type: cell-based, rat; conditions: for evoked potential (population spike) recovery: after one hour recovery
Description: Sprague-Dawley rats are briefly anesthetized with Halothane and then decapitated. The brain is removed and the hippocampus dissected. Transverse hippocampal brain slices of 475 microns are sectioned with a McIlwain tissue chopper. Slices are then incubated in a temperature controlled chamber of 34 degrees centigrade while being perfused with an artificial cerebral spinal fluid (NaCl 126 mM; KCl, 4; KH2 PO4, 1.4; MgSO4, 1.3; CaCl2, 2.4; NaHCO3, 26 and glucose, 4) saturated with 95% O2 and 5% CO2.
After an initial one hour equilibration period, the slices are tested for electrophysiological function. Electrical stimulation is given in the region of the CA3 collaterals with a bipolar twisted wire electrode. Evoked responses are recorded extracellularly in the pyramidal cell layer of the CA1 region. Stimulation is given for a duration of 40 microseconds in square wave pulses. The peak-to-peak amplitude of the resultant evoked potential response is then monitored.
Hippocampal slices from one animal are placed in two chambers. One chamber is used as a control and receives standard artificial cerebral spinal fluid (ACSF) while the second receives felbamate. In each chamber, one slice is stimulated every 30 seconds to monitor evoked potential response. Other slices in the chamber are not continuously stimulated. In these latter slices, designated as non-stimulated, the evoked potential response is assessed only at the beginning and end of the experiment. Only slices with initial evoked potentials of 3 mV or greater amplitude are included for testing.
The experimental chamber is perfused with oxygenated artificial cerebral spinal fluid (ACSF) containing felbamate for 30 minutes before the initiation of hypoxic conditions. The control chamber continues to receive oxygenated ACSF without felbamate during this period. Hypoxic conditions are then initiated simultaneously in both chambers by changing to perfusing media saturated with 95% N2 and 5% CO2. The experimental chamber receives nitrogenated ACSF with felbamate while the control chamber receives nitrogenated ACSF without felbamate.
The duration of hypoxic exposure for both chambers is determined by the disappearance of the hypoxic injury potential (HIP) in the control stimulated slice. This potential appears during hypoxia after the disappearance of the original evoked potential. Although hippocampal slices can vary in their temporal response to hypoxia, the HIP is a reliable marker of permanent hypoxic injury. For this reason, the disappearance of the HIP is chosen to determine length of hypoxic exposure. Hypoxia is continued in both chambers for 5 minutes beyond the disappearance of the HIP in the stimulated control slice.
After hypoxic exposure, slices are monitored through one hour of recovery with oxygenated ACSF. The felbamate chamber receives oxygenated ACSF with felbamate for the first 15 minutes of this recovery and then standard oxygenated ACSF for the remaining 45 minutes of recovery. After a one-hour recovery period, the percentage of evoked potential amplitude recovery is assessed in both stimulated and non-stimulated slices. This percentage is calculated as the evoked potential amplitude after recovery divided by the evoked potential amplitude prior to hypoxic exposure.
This protective action is assessed by several measures. First, evoked potential recovery is assessed in both stimulated and non-stimulated slices. Additionally, hypoxic protection is calculated for both stimulated and non-stimulated slices. This measure is calculated as the damage seen in control slices minus the damage seen in experimental (felbamate) slices divided by the damage seen in control slices. For these purposes damage is defined as 100 percent minus percent recovery. The determination of hypoxic protection helps take into account any survival seen in control slices. Lastly, counts of total surviving slices were made. […]

[4] = test system: metrazol; conditions: rats; cited from earlier work
[5] = biological target: T1, strychnine-insensitive glycine receptors; experiment: biochemical; type: binding
Description: Male Sprague-Dawley rats weighing 150-200 g are housed under a 12-hour light/dark cycle with access to food and water ad libitum. Animals are anesthetized with CO2 and sacrificed by decapitation. Brains are immediately removed and forebrains dissected, weighed and placed in 10 volumes (original wet weight volume) of 5 mM Hepes/4.5 mM Tris buffer (HTS; pH 7.8) containing 0.32 M sucrose. Tissue preparation is performed at about 4° C unless otherwise stated. Tissues are homogenized using a Brinkmann Polytron (setting 6, 30 seconds), diluted to 50 volumes in HTS-sucrose, and centrifuged at 1,000 xg for 10 minutes. The resultant pellet (P1) is discarded and supernatant centrifuged at 20,000 xg for 20 minutes. The resultant pellet (P2) is resuspended in HTS and centrifuged at 8,000 xg for 20 minutes. The supernatant and outer buffy coat (remaining pellet core discarded) is centrifuged at 20,000 xg for 20 minutes. The resultant pellet (P2/P3) is resuspended in HTS containing 1 mM EDTA and centrifuged at 20,000 xg for 20 minutes. The P2/P3 pellet is resuspended in HTS and the "washing" procedure is repeated two more times. The P2/P3 pellet is then resuspended in 5 volumes of HTS, frozen on dry-ice and stored at -80° C. for at least 72 hours prior to binding assay.
At the time of the assay, the appropriate amount of tissue is thawed and resuspended in 50 mM Hepes-KOH buffer (pH 8.0 at 4° C.) and "washed" twice by resuspension and centrifugation at 20,000 xg for 20 minutes. The binding of [^3 H]5,7DCKA is performed as described by Baron et al. Env. J. Pharmacol 206: 149-154 (1991). Assays are performed at 4° C. using quadruplicate samples in a total volume/tube of 1-ml consisting of: 500 ul membrane suspension (200-300 ug protein/assay tube) in 50 mM Hepes-KOH buffer (pH 8.0 at 4° C.), 100 ul [^3 H]5,7DCKA solution (19-21 nM; specific activity 18.2 Ci/mmol), 100 ul drug or buffer, and 300 ul buffer. […] Felbamate, solutions of 10 mM and 100 mM, are dissolved in 40-50% and 100% DMSO, respectively, and serial dilutions are performed. Binding reactions are initiated by adding the tissue homogenate and terminated after a 15 minute incubation period by rapid filtration through Brandel GF/B filters using a Brandel M-24 cell harvester. This filtration is followed by two 5-ml rinses with ice-cold buffer. Radioactivity is monitored in a Beckman LS 5801 liquid scintillation counter.
Displacement curves and IC50 values were analyzed using Graphpad (ISI Software, Philadelphia, Pa.).

[6] = Preclinical margin of safety (protective index); type: in vivo; conditions: preclinical profile

## O=C(O)c1cc(O)c2c(Cl)cc(Cl)cc2n1 [[^3 H]5,7DCKA, [^3 H]5,7-dichlorokynurenic acid]
[1]
  Kd: 0.069 µM

## NC(=O)OCC(COC(N)=O)c1ccccc1 [felbamate, 2-phenyl-1,3-propanediol dicarbamate]
[2]
  anticonvulsant ED50 for MES: 46 mg/kg
[3]; 380 uM, 840 uM, 1,300 uM and 1,700 uM
  neuroprotection against hypoxia: Significant neuroprotection
[3]; 1,300 and 1,700 uM, survival criterion 3 mV
  counts of surviving stimulated slices: substantial felbamate protection
[3]; high concentration of felbamate
  toxicity for electrophysiological function: no evidence of toxicity
[3]; pre-hypoxic incubation, felbamate perfusion
  toxicity (permanent evoked potential loss): no evidence of toxicity
[3]; stimulated slices, 4 uM
  evoked potential (population spike) recovery: 2%
[3]; stimulated slices, 190 uM
  evoked potential (population spike) recovery: 6%
[3]; stimulated slices, 380 uM
  evoked potential (population spike) recovery: 13%
[3]; stimulated slices, 840 uM
  evoked potential (population spike) recovery: 46%
[3]; stimulated slices, 1,300 uM
  evoked potential (population spike) recovery: 95%
[3]; stimulated slices, 1,700 uM
  delay of appearance of the hypoxic injury potential (HIP): 14.5 min
  evoked potential (population spike) recovery: 96%
[3]; stimulated slices, 1,700 uM, hypoxia
  effect on disappearance of the evoked potential: did not affect
[3]; survival criterion 3 mV
  counts of surviving non-stimulated slices: substantial protection
[4]
  anticonvulsant ED50 for metrazol: 238 mg/kg
[5]; IC50, inhibition of [3H]5,7DCKA, 10 uM-10 mM, combined data of three experiments on a single graph, FIG. 2
  IC50: 374 µM
[5]; IC50 value (mean +/- SEM), mean of the felbamate displacement experiments
  IC50: 477 ± 49 µM
[5]; K estimate for inhibition of [3H]5,7DCKA (mean +/- SEM), calculated, mean of experiments, FIG. 2
  Ki: 368 ± 37 µM
[5]; K estimate for inhibition of [3H]5,7DCKA, calculated from IC50 of combined data
  Ki: 289 µM
[5]; combined displacement data, FIG. 2
  Hill slope: -0.93
[5]; rat forebrain membranes, FIG. 2
  mode of inhibition of [3H]5,7DCKA binding: competitively inhibits
[6]
  protective index: 16.9-19.1
